Measurements: ChEMBL document CHEMBL1127662, “3-Alkoxybenzo[b]thiophene-2-carboxamides as inhibitors of neutrophil-endothelial cell adhesion” (J Med Chem, 1994)
pIC50: −log10 of the molar value.

Test system: HUVEC
Assay: (§1) Tested for adhesion of neutrophils to human umbilical vein endothelial cell at the dose of 100 uM
Type: functional

Compared with COc1ccc2sc(C(N)=O)c(OC(C)(C)C)c2c1, COc1ccc2sc(C(N)=O)c(OC)c2c1 is lower in inhibition at 100 µM: 97% for the first, 60% for the second.

First: CCNC(=O)c1sc2ccc(OC)cc2c1OC(C)C
Second: COc1ccc2c(OC(C)C)c(C(N)=O)sc2c1
The inhibition at 100 µM of the first is higher: 64% for the first, 24% for the second.

Going from CC(C)Oc1c(C(N)=O)sc2ccc(OCc3ccccc3)cc12 to COc1ccc2sc(C(N)=O)c(OCc3ccccc3)c2c1, the inhibition at 100 µM rises from under 4% to 57%.

First: COc1cccc2c(OC(C)C)c(C(N)=O)sc12
Second: CC(C)Oc1c(C(N)=O)sc2ccccc12
The inhibition at 100 µM of the first is lower: 35% for the first, 60% for the second.

Compared with Cc1ccc2sc(C(N)=O)c(OC(C)C)c2c1, CC(C)Oc1c(C(N)=O)sc2ccc(Cl)cc12 is higher in inhibition at 100 µM: 61% for the first, 72% for the second.

First: COc1ccc2sc(C(=O)Nc3ccccc3)c(OC(C)C)c2c1
Second: COc1ccc2sc(C(N)=O)c(Oc3ccccc3)c2c1
The inhibition at 100 µM of the first is lower: 12% for the first, 59% for the second.

CC(C)Oc1c(C(N)=O)sc2ccc(N)cc12 gave an inhibition at 100 µM of 49%.

Test system: HUVEC
Assay: as §1
Type: functional, cell-based

Compared with CC(C)Oc1c(C(N)=O)sc2ccc(O)cc12, CNC(=O)c1sc2ccc(OC)cc2c1OC(C)C is 0.37 log units lower in pIC50: 5.19 for the first, 4.82 for the second. The first is the more potent here.

For COc1ccc2c(c1)c(OC(C)C)c(C(N)=O)[s+]2[O-] (stereo not drawn), the pIC50 was 5.06.

First: CC(C)Oc1c(C(N)=O)sc2ccc([N+](=O)[O-])cc12
Second: COc1ccc2c(c1)C(OC(C)C)=C(C(N)=O)S2(=O)=O
The Inhibition of the first is higher: 40% for the first, under 4% for the second.
